Reference: patent US5504097A, “N-hydroxyureas as 5-lipoxygenase inhibitors and inhibitors of oxidative modification of low density lipoprotein” (American Home Products Corporation, priority 1995, dated 1996)

System: Low Density Lipoprotein
Experiment: Inhibition of Copper Ion Mediated Oxidation of Low Density Lipoprotein
Assay type: biochemical
Details: Cu^+2 mediated oxidation of rabbit or monkey LDL
Experimental: 5. Inhibition of Copper Ion Mediated Oxidation of Low Density Lipoprotein
In this in vitro assay, the inhibition of Cu^+2 mediated oxidation of rabbit or monkey LDL by an invention compound is determined spectrophotometricallly. Oxidation of LDL results in the formation of LDL-diene which absorbs light at 532 nm. Inhibition of oxidation of LDL leads to a decrease in absorbance at 532 nm.
Rabbit or monkey LDL is prepared according to the procedures of Havel, Eder and Gragdon, "The Distribution and Chemical Composition of Ultracentrifugally Separated Lipoproteins in Human Serum,: J, Clin. Invest. 34, 1345-1353 (1955) and Parhtasarathy, Wieland and Steriberg, "A Role for Endothelial Cell Lipoxygenase in the Oxidative Modification of Low Density Lipoprotein," Proc, Natl. Acad. Sci. USA 86, 1046-1050 (1989). Test compound solutions are prepared by dissolving the invention compounds in ethanol at concentrations up to 248 μM. The medium used is Dulbecco's phosphate buffered saline containing 0.5 mg/ml bovine serum albumin. For standards, 0 to 10 μl of an aqueous solution of 1,1,3,3-tetraethoxypropane (1 μmol/ml H2 O) in 4.1 ml of medium is used.
Test compound solution (100 μl) is added to 4 ml of medium in incubation tubes. To each tube is added 10 μl of LDL solution and 25 μl of aqueous copper sulfate solution (1.32 mg/ml H2 O ). The tubes are incubated at 37° C. for 90 minutes and the oxidation reaction quenched by addition of 1 ml of thiobarbituric acid solution (0.67% in 50% acetic acid). The tubes are heated at 90° C. for 1 hour, then chilled in an ice bath and the chromophore extracted into 2 ml of n-butanol. Absorbence is read at 532 nm and the results are reported as nmols of malondialdehyde equivalents.
Significant differences (p<0.05) are determined by the Dunnett T-test or by the Student-Newman-Keuls Test for significant differences between means. The assay is conducted using several concentrations I! of the inhibitor test compounds. The LDL solution concentrations at different experiments were either 1.5 mg/ml, 2.5 mg/ml or 10.3 mg/ml. The IC50 is determined by non-linear regression, plotting log I! vs. % inhibition. (Reference: K. Yagi, Biochemical Medicine 15, 212-216 (1976)).

- IC50: 1100 nM
Compound: Cc1oc(-c2ccccc2)nc1COc1ccc(CN(O)C(N)=O)cc1 [Example 1, 1-Hydroxy-1-4-(5-methyl-2-phenyl-oxazol-4-ylmethoxy)-benzyl!-urea]
